This is an account of results in patent publication US20110112010A1, “OCTANOIC ACID FORMULATIONS AND METHODS OF TREATMENT USING THE SAME” (The Government of the United States of America, as …, priority 2008, published 2011).

Data set [1] concerns Essential Tremor. The experiment in a line: Tremor assessment by digitized Archimedes spirals after oral 1-octanol. In kind it is in vivo, human. Here is the method:
Subjects: All subjects underwent a routine medical screening and neurological examination. A structured ethanol challenge was carried out to confirm tremors were ethanol-responsive. Subjects were videotaped at 0, 15, 30, 45, 60, and 75-minutes after receiving two servings (50-ml each) of 40% ethanol along with digitized spirography measures. Ethanol-responsive subjects then completed either a dose titration (1-64 mg/kg) inpatient study or a fixed dose (64 mg/kg) inpatient study to characterize the pharmacokinetics of 1-octanol and its predicted primary metabolite octanoic acid (OA). Tremor Assessment: To assess efficacy, subjects drew Archimedes spirals at fixed intervals on a digitizing tablet with an overlaid spiral guide. We used in-house analysis software to process the data before conducting a fast Fourier transform of tremor velocity to obtain our frequency and power measures.

The test system of data set [2] is Essential Tremor. The settings on record: humans with Essential Tremor; Bushara 2004, Shill 2004; cited from earlier work.
Data set [3] is described as follows: Pharmacokinetics of oral 1-octanol and its metabolite octanoic acid in plasma of adults with Essential Tremor. In kind it is in vivo, human. Here is the method: Subjects: All subjects underwent a routine medical screening and neurological examination. A structured ethanol challenge was carried out to confirm tremors were ethanol-responsive. Subjects were videotaped at 0, 15, 30, 45, 60, and 75-minutes after receiving two servings (50-ml each) of 40% ethanol along with digitized spirography measures. Ethanol-responsive subjects then completed either a dose titration (1-64 mg/kg) inpatient study or a fixed dose (64 mg/kg) inpatient study to characterize the pharmacokinetics of 1-octanol and its predicted primary metabolite octanoic acid (OA). Plasma Sampling: During the inpatient study, subjects received oral 1-octanol followed by collection of plasma samples at the following intervals: 5, 20, 45, 70, 100, 130, 160, 210, 270 and 360-minutes post-dose. Samples were processed then batch analyzed using high-performance liquid chromatography and mass spectrometry methods to measure concentrations of 1-octanol and OA.

The test system of data set [4] is hereditary essential tremor. The settings on record: patients with hereditary essential tremor; Brain 1994, 117: 805-824; cited from earlier work.
In another data set the test system is harmaline-induced tremor. The experiment in a line: Harmaline mouse model of essential tremor (motion power percentage). In kind it is in vivo. The settings on record: male ICR mice, harmaline 20 mg/kg s.c., octanoic acid i.p. in PEG-300. The source says: The harmaline model of essential tremor: Harmaline is a beta-carboline alkaloid that produces action tremor on systemic administration to mammals (see Llinas et al., Exp Brain Res 18:69 (1973)). […] Harmaline thus acts within the olivo-cerebellar system to produce tremor and can be used as a model to assess potential ET therapies (see Martin et al., Mov. Disord. 20:298 (2005)).
Animals: Male ICR mice (20-24 g) from Harlan (Indianapolis, Ind.) were housed in groups in standard cages with ad libitum access to commercial rodent diet and water.
Tremor measurement: Motion activity was measured with a Convuls-1 Replacement Sensing Platform model 1335-1A (Columbus Instruments, Columbus, Ohio), a metal platform with a load sensor beneath it, that is connected to a Grass model P511 AC amplifier (Grass Instruments, West Warwick, R.I.) with 1 and 70 Hz filter settings. Digitally recorded motion power was analyzed using Cambridge converter and software. Data was sampled at 128 Hz. The total motion power for each 20-minute epoch was calculated between 0 and 34 Hz (full motion spectrum) and between 10 and 16 Hz (the harmaline tremor frequency bandwidth); and the motion power percentage (10-16 Hz power)/(0-34 Hz power)×100 then calculated. This percentage is expressed as motion power percentage (MPP). […]

As for `CCCCCCCCO` [1-octanol], the “peak tremor reduction from baseline” value with Essential Tremor [1] (at 120 minutes post-dose) is reported as 42%. In the data set with Essential Tremor [1] (last timepoint 360 minutes), the “persistence of tremor-reducing effect” value is above 360 min. For the same molecule, the “safety and tremor suppression in early human studies” value with Essential Tremor [2] is “safe and effective at tremor suppression”. Also, the “1-octanol concentration as a function of oral dose” value in data set [3] (oral 1-octanol dose titration 1-64 mg/kg) is “remained at very low basal levels until the 64 mg/kg dose”.
`CCO` [ethanol]: the “proportion of patients in whom treatment was effective” value in data set [4] is 50%.
In the case of `CCCCCCCC(=O)O` [octanoic acid], in the data set with harmaline-induced tremor, the “suppression of harmaline-induced tremor” value was “suppressed harmaline-induced tremor in a dose dependent fashion”. Besides, in data set [3] (human, in vivo, po), the OA plasma half-life entry is listed as “approximately 74 minutes”, the “earliest time at which OA plasma concentrations were detectable post-dose” value amounted to 5 min and the “persistence of OA plasma levels following administration” value was “up to 6 hours”.
